Experimental data reported in PubChem BioAssay (NCI).
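Protocol summary: plate cells (96-well), add compound at 5 concentrations, incubate 48 h, interpolate endpoints linearly. At the GI50, growth is halved. TGI: total growth inhibition.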

Columns and labels:
Experiment in all cases: growth of human tumour cells (NCI), 48 h
786-0 renal = tested on: 786-0 renal
A498 renal = tested on: A498 renal
A549 NSCLC = tested on: A549 NSCLC
ACHN renal = tested on: ACHN renal
BT-549 breast = tested on: BT-549 breast
CAKI-1 renal = tested on: CAKI-1 renal
CCRF-CEM leukemia = tested on: CCRF-CEM leukemia
COLO 205 colon = tested on: COLO 205 colon
DU-145 prostate = tested on: DU-145 prostate
EKVX NSCLC = tested on: EKVX NSCLC
HCC-2998 colon = tested on: HCC-2998 colon
HCT-116 colon = tested on: HCT-116 colon
HCT-15 colon = tested on: HCT-15 colon
HL-60(TB) leukemia = tested on: HL-60(TB) leukemia
HOP-62 NSCLC = tested on: HOP-62 NSCLC
HS 578T breast = tested on: HS 578T breast
HT29 colon = tested on: HT29 colon
IGROV1 ovarian = tested on: IGROV1 ovarian
K-562 leukemia = tested on: K-562 leukemia
KM12 colon = tested on: KM12 colon
LOX IMVI melanoma = tested on: LOX IMVI melanoma
M14 melanoma = tested on: M14 melanoma
MALME-3M melanoma = tested on: MALME-3M melanoma
MCF7 breast = tested on: MCF7 breast
MDA-MB-231 breast = tested on: MDA-MB-231 breast
MDA-MB-435 = tested on: MDA-MB-435
MOLT-4 leukemia = tested on: MOLT-4 leukemia
NCI-H226 lung = tested on: NCI-H226 lung
NCI-H23 lung = tested on: NCI-H23 lung
NCI-H460 lung = tested on: NCI-H460 lung
NCI-H522 lung = tested on: NCI-H522 lung
NCI/ADR-RES ovarian = tested on: NCI/ADR-RES ovarian
OVCAR-3 ovarian = tested on: OVCAR-3 ovarian
OVCAR-4 ovarian = tested on: OVCAR-4 ovarian
OVCAR-5 ovarian = tested on: OVCAR-5 ovarian
OVCAR-8 ovarian = tested on: OVCAR-8 ovarian
PC-3 prostate = tested on: PC-3 prostate
RPMI-8226 leukemia = tested on: RPMI-8226 leukemia
RXF 393 renal = tested on: RXF 393 renal
SF-268 CNS = tested on: SF-268 CNS
SF-295 CNS = tested on: SF-295 CNS
SF-539 CNS = tested on: SF-539 CNS
SK-MEL-2 melanoma = tested on: SK-MEL-2 melanoma
SK-MEL-28 melanoma = tested on: SK-MEL-28 melanoma
SK-MEL-5 melanoma = tested on: SK-MEL-5 melanoma
SK-OV-3 ovarian = tested on: SK-OV-3 ovarian
SN12C renal = tested on: SN12C renal
SNB-19 CNS = tested on: SNB-19 CNS
SNB-75 CNS = tested on: SNB-75 CNS
SR leukemia = tested on: SR leukemia
SW-620 colon = tested on: SW-620 colon
T-47D breast = tested on: T-47D breast
TK-10 renal = tested on: TK-10 renal
U251 CNS = tested on: U251 CNS
UACC-257 melanoma = tested on: UACC-257 melanoma
UACC-62 melanoma = tested on: UACC-62 melanoma
UO-31 renal = tested on: UO-31 renal

Q: How did the GI50 (786-0 renal) turn out when `Oc1nc(N2CCOCC2)sc1/C=C1\C=Nc2ccccc21` was run?
A: > 100 µM

Q: And the TGI (786-0 renal)?
A: > 100 µM

Q: What about the GI50 (A498 renal) of the same compound?
A: > 100 µM

Q: What about the TGI (A498 renal) of the same compound?
A: > 100 µM

Q: What about the GI50 (A549 NSCLC) of the same compound?
A: > 100 µM

Q: What about the TGI (A549 NSCLC) of the same compound?
A: > 100 µM

Q: What about the GI50 (ACHN renal) of the same compound?
A: > 100 µM

Q: And the TGI (ACHN renal)?
A: > 100 µM

Q: And the GI50 (BT-549 breast)?
A: > 100 µM

Q: And the TGI (BT-549 breast)?
A: > 100 µM

Q: What about the GI50 (CAKI-1 renal) of the same compound?
A: > 100 µM

Q: And the TGI (CAKI-1 renal)?
A: > 100 µM

Q: And the GI50 (CCRF-CEM leukemia)?
A: > 100 µM

Q: What about the TGI (CCRF-CEM leukemia) of the same compound?
A: > 100 µM

Q: And the GI50 (COLO 205 colon)?
A: > 100 µM

Q: And the TGI (COLO 205 colon)?
A: > 100 µM

Q: What about the GI50 (DU-145 prostate) of the same compound?
A: > 100 µM

Q: What about the TGI (DU-145 prostate) of the same compound?
A: > 100 µM

Q: What about the GI50 (EKVX NSCLC) of the same compound?
A: > 100 µM

Q: And the TGI (EKVX NSCLC)?
A: > 100 µM

Q: And the GI50 (HCC-2998 colon)?
A: > 100 µM

Q: And the TGI (HCC-2998 colon)?
A: > 100 µM

Q: What about the GI50 (HCT-116 colon) of the same compound?
A: > 100 µM

Q: What about the TGI (HCT-116 colon) of the same compound?
A: > 100 µM

Q: What about the GI50 (HCT-15 colon) of the same compound?
A: > 100 µM

Q: What about the TGI (HCT-15 colon) of the same compound?
A: > 100 µM

Q: What about the GI50 (HL-60(TB) leukemia) of the same compound?
A: > 100 µM

Q: And the TGI (HL-60(TB) leukemia)?
A: > 100 µM

Q: What about the GI50 (HOP-62 NSCLC) of the same compound?
A: > 100 µM

Q: What about the TGI (HOP-62 NSCLC) of the same compound?
A: > 100 µM

Q: And the GI50 (HS 578T breast)?
A: > 100 µM

Q: What about the TGI (HS 578T breast) of the same compound?
A: > 100 µM

Q: And the GI50 (HT29 colon)?
A: 65.2 µM

Q: What about the TGI (HT29 colon) of the same compound?
A: > 100 µM

Q: And the GI50 (IGROV1 ovarian)?
A: > 100 µM

Q: What about the TGI (IGROV1 ovarian) of the same compound?
A: > 100 µM

Q: And the GI50 (K-562 leukemia)?
A: > 100 µM

Q: What about the TGI (K-562 leukemia) of the same compound?
A: > 100 µM

Q: And the GI50 (KM12 colon)?
A: > 100 µM

Q: What about the TGI (KM12 colon) of the same compound?
A: > 100 µM

Q: What about the GI50 (LOX IMVI melanoma) of the same compound?
A: > 100 µM

Q: What about the TGI (LOX IMVI melanoma) of the same compound?
A: > 100 µM

Q: What about the GI50 (M14 melanoma) of the same compound?
A: > 100 µM

Q: What about the TGI (M14 melanoma) of the same compound?
A: > 100 µM

Q: And the GI50 (MALME-3M melanoma)?
A: > 100 µM

Q: And the TGI (MALME-3M melanoma)?
A: > 100 µM

Q: What about the GI50 (MCF7 breast) of the same compound?
A: > 100 µM

Q: What about the TGI (MCF7 breast) of the same compound?
A: > 100 µM

Q: And the GI50 (MDA-MB-231 breast)?
A: > 100 µM

Q: What about the TGI (MDA-MB-231 breast) of the same compound?
A: > 100 µM

Q: What about the GI50 (MDA-MB-435) of the same compound?
A: > 100 µM

Q: What about the TGI (MDA-MB-435) of the same compound?
A: > 100 µM

Q: What about the GI50 (MOLT-4 leukemia) of the same compound?
A: > 100 µM

Q: What about the TGI (MOLT-4 leukemia) of the same compound?
A: > 100 µM

Q: And the GI50 (NCI-H226 lung)?
A: > 100 µM

Q: And the TGI (NCI-H226 lung)?
A: > 100 µM

Q: What about the GI50 (NCI-H23 lung) of the same compound?
A: > 100 µM

Q: What about the TGI (NCI-H23 lung) of the same compound?
A: > 100 µM

Q: What about the GI50 (NCI-H460 lung) of the same compound?
A: > 100 µM

Q: What about the TGI (NCI-H460 lung) of the same compound?
A: > 100 µM

Q: What about the GI50 (NCI-H522 lung) of the same compound?
A: > 100 µM

Q: And the TGI (NCI-H522 lung)?
A: > 100 µM

Q: What about the GI50 (NCI/ADR-RES ovarian) of the same compound?
A: > 100 µM

Q: And the TGI (NCI/ADR-RES ovarian)?
A: > 100 µM

Q: What about the GI50 (OVCAR-3 ovarian) of the same compound?
A: > 100 µM

Q: And the TGI (OVCAR-3 ovarian)?
A: > 100 µM

Q: And the GI50 (OVCAR-4 ovarian)?
A: > 100 µM

Q: What about the TGI (OVCAR-4 ovarian) of the same compound?
A: > 100 µM

Q: What about the GI50 (OVCAR-5 ovarian) of the same compound?
A: > 100 µM

Q: What about the TGI (OVCAR-5 ovarian) of the same compound?
A: > 100 µM

Q: And the GI50 (OVCAR-8 ovarian)?
A: > 100 µM

Q: And the TGI (OVCAR-8 ovarian)?
A: > 100 µM

Q: What about the GI50 (PC-3 prostate) of the same compound?
A: > 100 µM

Q: And the TGI (PC-3 prostate)?
A: > 100 µM

Q: What about the GI50 (RPMI-8226 leukemia) of the same compound?
A: > 100 µM

Q: And the TGI (RPMI-8226 leukemia)?
A: > 100 µM

Q: And the GI50 (RXF 393 renal)?
A: > 100 µM

Q: And the TGI (RXF 393 renal)?
A: > 100 µM

Q: What about the GI50 (SF-268 CNS) of the same compound?
A: > 100 µM

Q: What about the TGI (SF-268 CNS) of the same compound?
A: > 100 µM

Q: And the GI50 (SF-295 CNS)?
A: > 100 µM

Q: And the TGI (SF-295 CNS)?
A: > 100 µM

Q: And the GI50 (SF-539 CNS)?
A: > 100 µM

Q: And the TGI (SF-539 CNS)?
A: > 100 µM

Q: What about the GI50 (SK-MEL-2 melanoma) of the same compound?
A: > 100 µM

Q: What about the TGI (SK-MEL-2 melanoma) of the same compound?
A: > 100 µM

Q: What about the GI50 (SK-MEL-28 melanoma) of the same compound?
A: > 100 µM

Q: And the TGI (SK-MEL-28 melanoma)?
A: > 100 µM

Q: What about the GI50 (SK-MEL-5 melanoma) of the same compound?
A: > 100 µM

Q: What about the TGI (SK-MEL-5 melanoma) of the same compound?
A: > 100 µM

Q: And the GI50 (SK-OV-3 ovarian)?
A: > 100 µM

Q: And the TGI (SK-OV-3 ovarian)?
A: > 100 µM

Q: And the GI50 (SN12C renal)?
A: > 100 µM

Q: And the TGI (SN12C renal)?
A: > 100 µM

Q: What about the GI50 (SNB-19 CNS) of the same compound?
A: > 100 µM

Q: What about the TGI (SNB-19 CNS) of the same compound?
A: > 100 µM

Q: What about the GI50 (SNB-75 CNS) of the same compound?
A: 64.8 µM

Q: And the TGI (SNB-75 CNS)?
A: > 100 µM

Q: And the GI50 (SR leukemia)?
A: 82 µM

Q: What about the TGI (SR leukemia) of the same compound?
A: > 100 µM

Q: What about the GI50 (SW-620 colon) of the same compound?
A: > 100 µM

Q: And the TGI (SW-620 colon)?
A: > 100 µM

Q: What about the GI50 (T-47D breast) of the same compound?
A: > 100 µM

Q: And the TGI (T-47D breast)?
A: > 100 µM

Q: What about the GI50 (TK-10 renal) of the same compound?
A: > 100 µM

Q: And the TGI (TK-10 renal)?
A: > 100 µM

Q: What about the GI50 (U251 CNS) of the same compound?
A: > 100 µM

Q: And the TGI (U251 CNS)?
A: > 100 µM

Q: And the GI50 (UACC-257 melanoma)?
A: > 100 µM

Q: And the TGI (UACC-257 melanoma)?
A: > 100 µM

Q: And the GI50 (UACC-62 melanoma)?
A: > 100 µM

Q: What about the TGI (UACC-62 melanoma) of the same compound?
A: > 100 µM

Q: What about the GI50 (UO-31 renal) of the same compound?
A: > 100 µM

Q: And the TGI (UO-31 renal)?
A: > 100 µM
